Test system in the first data set: not given
Assay: not given
Settings: not given
In the case of `Cc1nc(-c2cccc3nc(N[C@@H]4CCc5ccccc54)ccc23)no1` [Example 79, (R)-Indan-1-yl-[5-(5-methyl-[1,2,4]oxadiazol-3-yl)-quinolin-2-yl]-amine], the melting point (commonly the temperature of the solid-liquid transition) was 105 °C.
Regarding `O=C(NCc1cccc2nc(N[C@@H]3CCc4ccccc43)ccc12)c1ccc(F)cc1` [Example 80, 4-Fluoro-N-[2-((R)-indan-1-ylamino)-quinolin-5-ylmethyl]-benzamide], the melting point came out at 145 °C.
The compound `ON=C(c1ccc(F)cc1)c1cccc2nc(N[C@@H]3CCc4ccccc43)ccc12` [Example 89, (4-Fluoro-phenyl)-[2-((R)-indan-1-ylamino)-quinolin-5-yl]-methanone oxime] registered a melting point of 184 °C.

Another data set deals with T1, recombinant human 5-HT5A receptor (Homo sapiens, UniProt P47898).
T1 construct: expressed in transfected cells; host or cells: HEK-EBNA (Human Embryonic Kidney-EBNA) cells, transient cDNA expression, membranes
T1 sequence (P47898 whole entry): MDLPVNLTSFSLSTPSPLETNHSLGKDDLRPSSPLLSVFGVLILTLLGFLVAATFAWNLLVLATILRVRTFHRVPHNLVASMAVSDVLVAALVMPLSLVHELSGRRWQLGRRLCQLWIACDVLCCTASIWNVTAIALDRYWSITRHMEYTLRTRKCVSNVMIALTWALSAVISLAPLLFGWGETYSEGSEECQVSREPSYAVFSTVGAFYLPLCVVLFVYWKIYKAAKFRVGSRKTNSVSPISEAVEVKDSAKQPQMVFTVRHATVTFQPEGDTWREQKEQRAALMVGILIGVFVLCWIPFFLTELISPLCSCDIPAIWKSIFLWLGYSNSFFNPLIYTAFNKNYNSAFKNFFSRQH
The data set can be described thus: [3H]LSD radioligand binding assay, membranes of HEK-EBNA cells transiently expressing 5-HT5A receptors. The settings on record: [3H]LSD approx. 1 nM, SPA beads, 120 min at room temperature; Ki from IC50 by Cheng-Prussoff equation. The protocol:
A [^3H]LSD radioligand binding assay was used to determine the affinity of the compounds for the recombinant human 5-HT5A receptor, in membranes from transiently (cDNA) expressed 5-HT5A receptors in Human Embryonic Kidney-EBNA (HEK-EBNA) cells. Assay buffer consisted of Tris (50 mM) buffer containing 1 mM EGTA, 10 mM MgCl2 (pH 7.4) and 10 μM pargyline. The binding assay was carried out in 96-well-plates in the presence of [^3H]LSD (approximately 1 nM), approximately 2 μg/well of membrane protein, and 0.5 mg of Ysi-poly-1-lysine SPA beads in a final volume of 200 μl of buffer. Non-specific binding was defined using methiothepin 2 μM. Compounds were tested at 10 concentrations. All assays were conducted in duplicate and repeated at least two times. Assay plates were incubated for 120 min at room temperature before centrifugation. Bound ligand was determined using a Packard Topcount scintillation counter. IC50 values were calculated using a non-linear curve fitting program and Ki values calculated using the Cheng-Prussoff equation.
Consider `c1ccc2c(c1)CC[C@H]2Nc1ccc2c(NCc3cnc[nH]3)cccc2n1` [Example 43, N5-(3H-Imidazol-4-ylmethyl)-N2-(R)-indan-1-yl-quinoline-2,5-diamine], for which the inhibition constant Ki – broadly, the equilibrium dissociation constant of an inhibitor or competing ligand from its target – came out at 6.45 nM.
As for `O=C(Nc1cccc2nc(N[C@@H]3CCc4ccccc43)ccc12)c1cc(F)cc(F)c1` [Example 45, 3,5-Difluoro-N-[2-((R)-indan-1-ylamino)-quinolin-5-yl]-benzamide], the Ki turned out to be 97.7 nM.
On the same count and under the same terms, as for `c1ccc2c(c1)CC[C@H]2Nc1ccc2c(NCc3ncc[nH]3)cccc2n1` [Example 49, N5-(1H-Imidazol-2-ylmethyl)-N2-(R)-indan-1-yl-quinoline-2,5-diamine], the figure is 22.5 nM.
With `c1ccc2c(c1)CC[C@H]2Nc1ccc2c(NCc3cc[nH]n3)cccc2n1` [Example 50, N2-(R)-Indan-1-yl-N5-(1H-pyrazol-3-ylmethyl)-quinoline-2,5-diamine], the Ki was 13.6 nM.
As to `Cc1nc(CNc2cccc3nc(N[C@@H]4CCc5ccccc54)ccc23)c[nH]1` [Example 53], the Ki came out at 7.57 nM.
For `Cn1cc(CNc2cccc3nc(N[C@@H]4CCc5ccccc54)ccc23)cn1` [Example 55, N2-(R)-Indan-1-yl-N5-(1-methyl-1H-pyrazol-4-ylmethyl)-quinoline-2,5-diamine], the Ki turned out to be 25.6 nM.
Take `c1ccc2c(c1)CC[C@H]2Nc1ccc2c(NCc3cccc4[nH]ccc34)cccc2n1` [Example 56, N2-(R)-Indan-1-yl-N5-(1H-indol-4-ylmethyl)-quinoline-2,5-diamine]: the Ki was found to be 1.65 nM.
On to `COc1cccc2c1C(Nc1ccc3c(NCc4c[nH]cn4)cccc3n1)CC2` (stereo not shown) [Example 58, N5-(1H-Imidazol-4-ylmethyl)-N2-(7-methoxy-indan-1-yl)-quinoline-2,5-diamine], for which the Ki stood at 2.36 nM.
As for `c1ccc(-c2cccc3nc(N[C@@H]4CCc5ccccc54)ccc23)cc1` [Example 63, (R)-Indan-1-yl-(5-phenyl-quinolin-2-yl)-amine], the Ki stood at 229 nM.
With `CN(C)CCOc1ccccc1CNc1cccc2nc(N[C@@H]3CCc4ccccc43)ccc12` [Example 64, N5-[2-(2-Dimethylamino-ethoxy)-benzyl]-N2-(R)-indan-1-yl-quinoline-2,5-diamine], the Ki was 6.03 nM.
Turning to `Cc1ccccc1-c1cccc2nc(N[C@@H]3CCc4ccccc43)ccc12` [Example 65, (R)-Indan-1-yl-(5-o-tolyl-quinolin-2-yl)-amine], the inhibition constant (Ki) came out at 173 nM.
With `c1cncc(-c2cccc3nc(N[C@@H]4CCc5ccccc54)ccc23)c1` [Example 66, (R)-Indan-1-yl-(5-pyridin-3-yl-quinolin-2-yl)-amine], the Ki was found to be 320 nM.
Turning to `c1ccc2c(c1)CC[C@H]2Nc1ccc2c(Nc3cccc4cc[nH]c34)cccc2n1` [Example 69, N2-(R)-Indan-1-yl-N5-(1H-indol-7-yl)-quinoline-2,5-diamine], the Ki came to 5.61 nM.
Consider `c1ccc2c(c1)CC[C@H]2Nc1ccc2c(Nc3cccc4[nH]ccc34)cccc2n1` [Example 71, N2-(R)-Indan-1-yl-N5-(1H-indol-4-yl)-quinoline-2,5-diamine], for which the Ki was found to be 2.94 nM.
Turning to `c1ccc2c(c1)CC[C@H]2Nc1ccc2c(Nc3ccc4[nH]ccc4c3)cccc2n1` [Example 72, N2-(R)-Indan-1-yl-N5-(1H-indol-5-yl)-quinoline-2,5-diamine], the Ki worked out at 6 nM.
Regarding `c1ccc2c(c1)CC[C@H]2Nc1ccc2c(Nc3ccc4cc[nH]c4c3)cccc2n1` [Example 73, N2-(R)-Indan-1-yl-N5-(1H-indol-6-yl)-quinoline-2,5-diamine], the Ki amounted to 4.7 nM.
As for `c1ccc2c(c1)CC[C@H]2Nc1ccc2c(-c3cccc4[nH]ccc34)cccc2n1` [Example 74, (R)-Indan-1-yl-[5-(1H-indol-4-yl)-quinolin-2-yl]-amine], the Ki worked out at 41.7 nM.
Consider `Clc1ccccc1-c1cccc2nc(N[C@@H]3CCc4ccccc43)ccc12` [Example 75, [5-(2-Chloro-phenyl)-quinolin-2-yl]-(R)-indan-1-yl-amine], for which the inhibitory constant (Ki) is 127 nM.
For the compound `Cc1cc(Nc2cccc3nc(N[C@@H]4CCc5ccccc54)ccc23)n(C)n1` [Example 76, N5-(2,5-Dimethyl-2H-pyrazol-3-yl)-N2-(R)-indan-1-yl-quinoline-2,5-diamine], the Ki is 33 nM.
For the compound `Fc1ccc(Nc2cccc3nc(N[C@@H]4CCc5ccccc54)ccc23)cc1` [Example 77, N5-(4-Fluoro-phenyl)-N2-(R)-indan-1-yl-quinoline-2,5-diamine], the Ki turned out to be 6.38 nM.
Regarding `O=C(Nc1cccc2nc(N[C@@H]3CCc4ccccc43)ccc12)c1ccc(F)cc1` [Example 78, 4-Fluoro-N-[2-((R)-indan-1-ylamino)-quinolin-5-yl]-benzamide], the Ki was 91.6 nM.
Turning to `Cc1nc(-c2cccc3nc(N[C@@H]4CCc5ccccc54)ccc23)no1` [Example 79, (R)-Indan-1-yl-[5-(5-methyl-[1,2,4]oxadiazol-3-yl)-quinolin-2-yl]-amine], the Ki was 134 nM.
In the case of `O=C(NCc1cccc2nc(N[C@@H]3CCc4ccccc43)ccc12)c1ccc(F)cc1` [Example 80, 4-Fluoro-N-[2-((R)-indan-1-ylamino)-quinolin-5-ylmethyl]-benzamide], the Ki was 34.4 nM.
For the compound `Fc1ccc(CNCc2cccc3nc(N[C@@H]4CCc5ccccc54)ccc23)cc1` [Example 81, {5-[(4-Fluoro-benzylamino)-methyl]-quinolin-2-yl}-(R)-indan-1-yl-amine], the Ki turned out to be 151 nM.
For the compound `N=C(c1ccc(F)cc1)c1cccc2nc(N[C@@H]3CCc4ccccc43)ccc12` [Example 82, {5-[(4-Fluoro-phenyl)-imino-methyl]-quinolin-2-yl}-(R)-indan-1-yl-amine], the Ki turned out to be 7.82 nM.
In the case of `O=C(c1ccc(F)cc1)c1cccc2nc(N[C@@H]3CCc4ccccc43)ccc12` [Example 83, (4-Fluoro-phenyl)-[2-((R)-indan-1-ylamino)-quinolin-5-yl]-methanone], the Ki stood at 11.5 nM.
The same measure, in the same setting: as for `N=C(c1ccccc1)c1cccc2nc(N[C@@H]3CCc4ccccc43)ccc12` [Example 84, [5-(Imino-phenyl-methyl)-quinolin-2-yl]-(R)-indan-1-yl-amine], the figure is 17.1 nM.
Take `O=C(c1ccccc1)c1cccc2nc(N[C@@H]3CCc4ccccc43)ccc12` [Example 85, [2-((R)-Indan-1-ylamino)-quinolin-5-yl]-phenyl-methanone]: the Ki stood at 24.1 nM.
For the compound `O=S(=O)(Nc1ccc(F)cc1)Nc1cccc2nc(N[C@@H]3CCc4ccccc43)ccc12` [Example 86, N-{2-[(1R)-2,3-dihydro-1H-inden-1-ylamino]quinolin-5-yl}-N′-(4-fluorophenyl)sulfamide], the Ki amounted to 10 nM.
Same read-out and setting: as for `Fc1cc(F)cc(CNc2cccc3nc(NC4Cc5ccccc5C4)ccc23)c1` [Example 87, N5-(3,5-Difluoro-benzyl)-N2-indan-2-yl-quinoline-2,5-diamine], the figure is 56.2 nM; as for `c1ccc2c(c1)CC(Nc1ccc3c(NCc4cccc5[nH]ccc45)cccc3n1)C2` [Example 88, N2-Indan-2-yl-N5-(1H-indol-4-ylmethyl)-quinoline-2,5-diamine], 44.3 nM; as for `ON=C(c1ccc(F)cc1)c1cccc2nc(N[C@@H]3CCc4ccccc43)ccc12` [Example 89, (4-Fluoro-phenyl)-[2-((R)-indan-1-ylamino)-quinolin-5-yl]-methanone oxime], 2.3 nM.
On the same count and under the same terms, as for `COc1ccc(C(=O)c2cccc3nc(N[C@@H]4CCc5ccccc54)ccc23)cc1` [Example 93, [2-((R)-Indan-1-ylamino)-(4-methoxy-phenyl)-quinolin-5-yl]-methanone], the figure is 15.8 nM; as for `O=C(c1cccc(F)c1)c1cccc2nc(N[C@@H]3CCc4ccccc43)ccc12` [Example 94, (3-Fluoro-phenyl)-[2-((R)-indan-1-ylamino)-quinolin-5-yl]-methanone], 117 nM; as for `COc1ccc(C(=NO)c2cccc3nc(N[C@@H]4CCc5ccccc54)ccc23)cc1` [Example 95, [2-((R)-Indan-1-ylamino)-(4-methoxy-phenyl)-quinolin-5-yl]-methanone oxime], 4.11 nM.
`Cc1ccc(C(=O)c2cccc3nc(N[C@@H]4CCc5ccccc54)ccc23)cc1` [Example 97, [2-((R)-Indan-1-ylamino)-(4-methyl-phenyl)-quinolin-5-yl]-methanone]: the Ki stood at 37.4 nM.
For `CON=C(c1ccc(C)cc1)c1cccc2nc(N[C@@H]3CCc4ccccc43)ccc12` [Example 98, [2-((R)-Indan-1-ylamino)-(4-methyl-phenyl)-quinolin-5-yl]-methanone O-methyl-oxime], the Ki amounted to 49.8 nM.
Take `Cc1ccc(C(=NO)c2cccc3nc(N[C@@H]4CCc5ccccc54)ccc23)cc1` [Example 99, [2-((R)-Indan-1-ylamino)-(4-methyl-phenyl)-quinolin-5-yl]-methanone oxime]: the Ki amounted to 1.8 nM.
Still for that read-out and setting: the result for `O=C(c1cc(F)cc(F)c1)c1cccc2nc(N[C@@H]3CCc4ccccc43)ccc12` [Example 100, (3,5-Difluoro-phenyl)-[2-((R)-indan-1-ylamino)-quinolin-5-yl]-methanone] reads 264 nM.
As for “(4-Chloro-phenyl)-[2-((R)-indan-1-ylamino)-quinolin-5-yl]-methanone [Example 90]”, the Ki stood at 49.7 nM.

Values taken from patent US7923561B2 (Hoffmann-La Roche Inc., priority 2006, dated 2011).
